# From US12491185B2, “Inhibitors of mPTP” (NRG Therapeutics Ltd, priority 2023, dated 2025)
# Test system: mPTP
# Assay: mPTP activity (Ca2+ retention) assay in isolated rat liver mitochondria
# Format: biochemical
# Conditions: examples tested by different contract research organisations, believed comparable
# Source text: Pharmacological inhibition or modulation of the mPTP can be measured in well characterised ‘Ca^2+ retention’ assays performed in isolated mitochondria. In vitro, isolated mitochondria rapidly sequester exogenous Ca^2+ until the intramitochondrial Ca^2+ concentration reaches the threshold for mPTP activation. Once the pore is activated, mitochondrial integrity is compromised and the stored Ca^2+ is released. The distribution of Ca^2+ between extra- and intra-mitochondrial compartments can be measured in real time with the use of membrane-impermeant Ca^2+ sensitive fluorescent dyes. Depending on the configuration of the assay, inhibition or modulation of the mPTP either delays the opening of the pore or increases the concentration of Ca^2+ required to induce mPTP opening.
# MPTP activity was measured in mitochondria freshly isolated from female Sprague Dawley (250 to 300 gram) rat livers using the following method. Cervical dislocation was performed on the rat. The liver was then perfused in-situ with −40 ml cold Dulbecco's Phosphate Buffered Saline (DPBS) prior to dissection and transferred into 30 ml Isolation Buffer (250 mM Sucrose, 10 mM KCl, 1 mM EGTA, 1 mM EDTA, 25 mM HEPES, adjusted to pH 7.5 with 1M NaOH). Each lobe of the liver was then removed from the buffer, minced using tweezers and a scalpel into −5 mm pieces then transferred into a 50 ml Potterton dounce homogenization tube on ice containing 30 ml ice-cold centrifugation buffer (300 mM Trehalose, 25 mM HEPES, 1 mM EGTA, 1 mM EDTA, 10 mM KCl, adjusted to pH 7.5 with 1M NaOH and supplemented with 0.1% bovine serum albumin (BSA) and complete protease inhibitor cocktail (one tablet of inhibitor per 50 mls of buffer). Homogenisation was carried out using a teflon pestle at 1800 rpm. The slurry was centrifuged at 800 g for 10 min at 4° C., then the supernatant centrifuged at 10,000 g for 10 min. The pellet was washed once with FLIPR assay buffer (75 mM Mannitol, 25 mM Sucrose, 5 mM Potassium Phosphate Monobasic, 20 mM Tris base, 100 mM KCl, 0.1% BSA adjusted to pH 7.4 with 5M HCl) centrifuged again, then resuspended in FLIPR assay buffer to a concentration of 8.8 mg/ml protein.
# Tested compounds (10 mM stock in DMSO) were serially diluted in DMSO in half log steps to generate 10 test concentrations (final concentrations in assay 30 μM to 1 nM). An intermediate dilution of 5 μl DMSO samples into 247 μl FLIPR assay buffer was carried out prior to transfer of 5 μl into duplicate wells of a 384 well polypropylene assay plate. Control wells were 0.5% (v/v) DMSO and 5 μM cyclosporin A.
# A stock mitochondria/Fluo5N assay solution was prepared in 5.6 ml FLIPR assay buffer (at RT) supplemented with succinate disodium salt (10 mM), rotenone (1 μM), Fluo5N pentapotassium salt (2 μM) and 1 ml mitochondria suspension, then transferred (15 μl) into the assay plate containing test compounds and incubated for 10 min at RT. Assay plates were processed for fluorescence detection on either a FLIPR Tetra (Molecular Devices) or CLARIOstar (BMG) plate reader. For kinetic fluorescence detection on the FLIPR, dye fluorescence was measured every 3 sec for a total of 10 min. After 12 sec, a 2.5 μl bolus of CaCl2 (75 μM) was added from a source plate containing 675 μM CaCl2 in FLIPR assay buffer. Alternatively, the 2.5 μl addition of CaCl2 was performed using a Viaflow 384, plates were incubated at RT for 10 min, and dye fluorescence measured after 10 min on the CLARIOstar plate reader. pIC50 values for tested compounds were calculated using the fluorescence value collected at the 10 min timepoint on either plate reader, with % inhibition calculated using the DMSO control and cyclosporin A values as 0 and 100% respectively.
row,mPTP Rat liver pIC50,SMILES
1,<4.57,"Cn1c(C(=O)NCC2(Cc3ccc(F)cc3F)CCC2)n[nH]c1=O [Example 173, N-((1-(2,4-difluorobenzyl)cyclobutyl)methyl)-4-methyl-5-oxo-4,5-dihydro-1H-1,2,4-triazole-3-carboxamide]"
2,5.73,O=C(NCC1(Cc2ccc(F)c(F)c2)CCC1)c1cncc(=O)[nH]1 [Example 139]
3,<4.57,Cn1oc(C(=O)NCC2(Cc3ccc(F)cc3F)CCC2)cc1=O [Example 126]
4,<4.57,O=C(NCC1(Cc2cc(F)cc(F)c2)CCC1)c1cncc(=O)[nH]1 [Example 165]
5,<4.57,"O=C(NCC1(Cc2ccc(F)cc2F)CCC1)c1cnc[nH]c1=O [Example 213, N-((1-(2,4-difluorobenzyl)cyclobutyl)methyl)-6-oxo-1,6-dihydropyrimidine-5-carboxamide]"
6,<4.57,"Cn1nc(C(=O)NCC2(Cc3ccc(F)cc3F)CCC2)n(C)c1=O [Example 107, N-((1-(2,4-difluorobenzyl)cyclobutyl)methyl)-1,4-dimethyl-5-oxo-4,5-dihydro-1H-1,2,4-triazole-3-carboxamide]"
7,5.7,Cc1cc(F)ccc1CC1(CNC(=O)c2cncc(=O)[nH]2)CCC1 [Example 166]
8,5.28,"O=C(NCC1(Cc2ccccc2)CCC1)c1noc(=O)[nH]1 [Example 88, N-((1-Benzylcyclobutyl)methyl)-5-oxo-4,5-dihydro-1,2,4-oxadiazole-3-carboxamide]"
9,4.65,"Cn1cc(C(=O)NCC2(Cc3ccccc3)CCC2)[nH]c1=O [Example 63, N-((1-benzylcyclobutyl)methyl)-1-methyl-2-oxo-2,3-dihydro-1H-imidazole-4-carboxamide]"
10,<4.57,"CCc1ccc(CC2(CNC(=O)c3nn(C)c(=O)[nH]3)CCC2)cc1 [Example 111, N-((1-(4-ethylbenzyl)cyclobutyl)methyl)-1-methyl-5-oxo-4,5-dihydro-1H-1,2,4-triazole-3-carboxamide]"
11,6.31,O=C(NCC1(Cc2ccc(F)cc2F)CC12CC2)c1cncc(=O)[nH]1 (stereo not drawn) [Example 122]
12,<4.57,"O=C(NCC1(Cc2ccc(F)cc2F)CCC1)c1c[nH]c(=O)cn1 [Example 138, N-((1-(2,4-difluorobenzyl)cyclobutyl)methyl)-5-oxo-4,5-dihydropyrazine-2-carboxamide]"
13,<4.57,O=C(NCC1(Cc2cccc(F)c2)CCC1)c1cnn[nH]1 [Example 167]
14,<4.57,Cn1nc(C(=O)NCC2(Cc3ccc(F)cc3F)CCC2)nc1CO [Example 208]

# Second part, the molecule before the results:
row,SMILES,mPTP Rat liver pIC50
1,"CCC(CNC(=O)c1nn(C)c(=O)[nH]1)Cc1cscn1 (stereo not drawn) [Example 112, 1-methyl-5-oxo-N-(2-(thiazol-4-ylmethyl)butyl)-4,5-dihydro-1H-1,2,4-triazole-3-carboxamide]",<4.57
2,Cn1nc(C(=O)NCC(Cc2c(F)cc(F)cc2Cl)C2CC2)[nH]c1=O (stereo not drawn) [Example 220],5.56
3,COCc1ccccc1CC1(CNC(=O)c2nn(C)c(=O)[nH]2)CCC1 [Example 178],<4.57
4,"Cn1nc(C(=O)NCC(Cc2ccc(F)cc2Cl)C2CC2)[nH]c1=O (stereo not drawn) [Example 193, N-(3-(2-chloro-4-fluorophenyl)-2-cyclopropylpropyl)-1-methyl-5-oxo-4,5-dihydro-1H-1,2,4-triazole-3-carboxamide]",6.36
5,"Cn1nc(C(=O)NC[C@H](Cc2ccc(F)c(F)c2)C2CC2)[nH]c1=S [Example 118, (R)-N-(2-cyclopropyl-3-(3,4-difluorophenyl)propyl)-1-methyl-5-thioxo-4,5-dihydro-1H-1,2,4-triazole-3-carboxamide]",6.26
6,"CC[C@@H](Cc1ccccc1)[C@H](C)NC(=O)c1nn(C)c(=O)[nH]1 [Example 74, N-((2S,3S)-3-benzylpentan-2-yl)-1-methyl-5-oxo-4,5-dihydro-1H-1,2,4-triazole-3-carboxamide]",5.98
7,"CCc1ccccc1CC1(CNC(=O)c2nn(C)c(=O)[nH]2)CCC1 [Example 82, N-((1-(2-Ethylbenzyl)cyclobutyl)methyl)-1-methyl-5-oxo-4,5-dihydro-1H-1,2,4-triazole-3-carboxamide]",5.27
8,"O=C(NCC1(Cc2ccccc2)CCC1)c1nc2ccccc2c(=O)[nH]1 [Example 66, N-((1-benzylcyclobutyl)methyl)-4-oxo-3,4-dihydro-quinazoline-2-carboxamide]",<4.52
9,O=C(NCC(Cc1ccc(F)cc1Cl)C1CC1)c1nccc(=O)[nH]1 (stereo not drawn) [Example 214],<4.52
10,"CC(c1ccc(F)cc1F)[C@@H](CNC(=O)c1nccc(=O)[nH]1)C1CC1 (stereo partly drawn) [Example 188, N-[(2S)-2-Cyclopropyl-3-(2,4-difluorophenyl)butyl]-4-oxo-3H-pyrimidine-2-carboxamide]",5.42
11,O=C(NC[C@H](Cc1cc(F)ccc1F)C1CC1)c1cncc(=O)[nH]1 [Example 158],5.33
12,"CN(CC(C)(C)Cc1ccccc1)C(=O)c1nn(C)c(=O)[nH]1 [Example 72, N-(2,2-dimethyl-3-phenylpropyl)-N,1-dimethyl-5-oxo-4,5-dihydro-1H-1,2,4-triazole-3-carboxamide]",4.67
13,"Cn1nc(C(=O)NC(CCc2ccccc2)CC(F)(F)F)[nH]c1=O (stereo not drawn) [Example 71, 1-methyl-5-oxo-N-(1,1,1-trifluoro-5-phenylpentan-3-yl)-4,5-dihydro-1H-1,2,4-triazole-3-carboxamide]",<4.52
14,O=C(NC[C@H](Cc1ccc(F)cc1F)C1CC1)c1coc(=O)[nH]1 [Example 137],5.58
15,"CCC(CNC(=O)c1nn(C)c(=O)[nH]1)Cc1cnn(C)c1 (stereo not drawn) [Example 113, 1-methyl-N-(2-((1-methyl-1H-pyrazol-4-yl)methyl)butyl)-5-oxo-4,5-dihydro-1H-1,2,4-triazole-3-carboxamide]",<4.57
16,O=C(NC[C@H](Cc1ccc(F)cc1F)C1CC1)c1noc(=O)[nH]1 [Example 204],6.53
17,CC[C@H](CNC(=O)c1noc(=O)[nH]1)Cc1ccc(F)cc1F [Example 209],5.96
18,"COc1ccccc1CC1(CNC(=O)c2nn(C)c(=O)[nH]2)CCC1 [Example 61, N-((1-(2-methoxybenzyl)cyclobutyl)methyl)-1-methyl-5-oxo-4,5-dihydro-1H-1,2,4-triazole-3-carboxamide]",4.99
19,O=C(NCC1(Cc2ccc(F)cc2F)CC(F)C1)c1nccc(=O)[nH]1 (stereo not drawn) [Example 215],6.34
20,CC[C@@H](Cc1ccccc1)C(C)NC(=O)c1nn(C)c(=O)[nH]1 (stereo partly drawn) [Example 135],6.52
21,"Cn1nc(C(=O)NC[C@@H](Cc2ccc(F)cc2F)C2CC2)[nH]c1=O [Example 97, (S)—N-(2-cyclopropyl-3-(2,4-difluorophenyl)propyl)-1-methyl-5-oxo-4,5-dihydro-1H-1,2,4-triazole-3-carboxamide]",5.66
22,"Cc1cc(Cl)ccc1CC1(CNC(=O)c2nn(C)c(=O)[nH]2)CCC1 [Example 91, N-((1-(4-Chloro-2-methylbenzyl)cyclobutyl)methyl)-1-methyl-5-oxo-4,5-dihydro-1H-1,2,4-triazole-3-carboxamide]",5.75
23,Cn1nc(C(=O)NCC(Cc2ccc(Cl)cc2F)C2CC2)[nH]c1=O (stereo not drawn) [Example 222],6.11
24,"Cn1nc(C(=O)NCC(C)(C)Cc2ccccc2)ccc1=O [Example 67, N-(2,2-dimethyl-3-phenylpropyl)-1-methyl-6-oxo-1,6-dihydro-pyridazine-3-carboxamide]",<4.52
25,CCC(CNC(=O)c1nn(C)c(=O)[nH]1)Cc1ccc(F)c(F)c1 (stereo not drawn) [Example 164],6.56
